For the test, the target named is Somatostatin receptor type 4 (Rattus norvegicus, UniProt P30937).

In general, Ki refers to a dissociation constant, usually derived from enzyme kinetics or from competition with a known ligand. Read a high Ki as weaker binding.

Where a SMILES comes first, the peptide text is derived from it. Bridges are numbered along the chain shown (N, C = ends). [ ]: non-standard residue; d: D form. The star is where a group is joined. NH(1-naphthylmethyl) = c1ccc2c(CN*)cccc2c1; Phe(4-Cl) = N[C@@H](Cc1ccc(Cl)cc1)C(=O)O; 2Nal = N[C@@H](Cc1ccc2ccccc2c1)C(=O)O; 1Nal = N[CH](Cc1cccc2ccccc12)C(=O)O; dNMeF = CN[C@H](Cc1ccccc1)C(=O)O; Thr(ol) = C[CH](O)[CH](N)CO; dNMeA = CN[C@H](C)C(=O)O; Abu = CC[C@H](N)C(=O)O; Aoc = NCCCCCCCC(=O)O; Ahp = NCCCCCCC(=O)O; Ahx = NCCCCCC(=O)O; Bn = c1ccc(C*)cc1

Somatostatin receptor type 4, sequence (P30937 whole entry): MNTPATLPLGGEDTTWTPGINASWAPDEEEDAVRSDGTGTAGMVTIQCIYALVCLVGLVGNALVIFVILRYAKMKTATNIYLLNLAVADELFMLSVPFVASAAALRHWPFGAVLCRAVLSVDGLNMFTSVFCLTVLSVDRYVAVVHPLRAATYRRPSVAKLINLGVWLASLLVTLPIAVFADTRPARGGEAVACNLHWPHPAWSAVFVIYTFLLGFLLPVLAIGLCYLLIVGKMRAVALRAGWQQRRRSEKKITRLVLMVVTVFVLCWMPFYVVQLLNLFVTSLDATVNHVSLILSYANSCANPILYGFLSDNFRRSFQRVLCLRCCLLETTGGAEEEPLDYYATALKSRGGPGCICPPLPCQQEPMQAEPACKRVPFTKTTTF

In the case of `CC[C@@H]1NC(=O)[C@H](CCCCN)NC(=O)[C@@H](Cc2c[nH]c3ccccc23)NC(=O)[C@H](Cc2ccc(O)cc2)NC(=O)[C@@H](NC(=O)[C@H](N)Cc2ccccc2)CSSC[C@@H](C(=O)N[C@@H](Cc2ccc3ccccc3c2)C(N)=O)NC1=O` [D-Phe-Cys-Tyr-D-Trp-Lys-Abu-Cys-Nal-NH] (H-[dF]CY[dW]K[Abu]C[2Nal]-NH2; disulfide 2-7), the affinity corresponds to a Ki of 6 nM.

`CC[C@@H]1NC(=O)[C@H](CCCCN)NC(=O)[C@@H](Cc2c[nH]c3ccccc23)NC(=O)[C@H](Cc2ccc(O)cc2)NC(=O)[C@@H](NC(=O)[C@H](N)Cc2ccccc2)CSSC[C@@H](C(=O)N[C@H](C(N)=O)[C@@H](C)O)NC1=O` [D-Phe-L-Cys(1)-L-Tyr-D-Trp-L-Lys-L-Abu-L-Cys(1)-L-Thr-NH2] had a Ki of 0.18 nM.

On to `CC(C)[C@H](NC(=O)[C@H](CCCCN)NC(=O)[C@@H](Cc1c[nH]c2ccccc12)NC(=O)[C@H](Cc1ccc(O)cc1)NC(=O)[C@H](Cc1ccccc1)NC(=O)[C@H](N)Cc1ccccc1)C(=O)N[C@@H](Cc1ccccc1)C(=O)N[C@H](Cc1ccccc1)C(N)=O` [D-Phe-Phe-Tyr-D-Trp-Lys-Val-Phe-D-Phe-NH2] (H-[dF]FY[dW]KVF[dF]-NH2), for which the Ki was 3.3 nM.

`CC(C)C1NC(=O)C(CCCCN)NC(=O)C(Cc2c[nH]c3ccccc23)NC(=O)C(Cc2ccc(O)cc2)NC(=O)C(NC(=O)C(N)Cc2cccc3ccccc23)CSSCC(C(=O)NC(CO)C(C)O)NC1=O` (stereo unspecified) [DC23-60] (H-[1Nal]CYWKVC[Thr(ol)]; disulfide 2-7; configuration not given here) yielded a Ki of 1.5 nM.

The molecule `C[C@@H](O)[C@@H]1NC(=O)[C@H](CCCCN)NC(=O)[C@@H](Cc2c[nH]c3ccccc23)NC(=O)[C@H](Cc2c[nH]c3ccccc23)NC(=O)[C@H](Cc2ccccc2)NC(=O)CCCCCCNC(=O)[C@H](Cc2ccccc2)NC1=O` [L-362855] (cyclo([Ahp]FW[dW]KTF)) showed a Ki of 0.005 nM.

Turning to `C[C@@H](O)[C@@H]1NC(=O)[C@H](CCCCN)NC(=O)[C@@H](Cc2c[nH]c3ccccc23)NC(=O)[C@H](Cc2ccccc2)NC(=O)[C@H](Cc2ccc(Cl)cc2)NC(=O)CCCCCCNC(=O)[C@H](Cc2ccccc2)NC1=O` [L-362862] (cyclo([Ahp][Phe(4-Cl)]F[dW]KTF)), the Ki is 0.47 nM.

The molecule `CC(C)[C@H](NC(=O)[C@H](CCCCN)NC(=O)[C@@H](Cc1c[nH]c2ccccc12)NC(=O)[C@H](Cc1ccc(O)cc1)NC(=O)[C@H](C)NC(=O)[C@H](N)Cc1ccccc1)C(=O)N[C@@H](C)C(=O)N[C@@H](Cc1ccc2ccccc2c1)C(N)=O` [L-Alaninamide,D-phenylalanyl-L-alanyl-L-tyrosyl-D-tryptophyl-L-lysyl-L-valyl-L-alanyl-3-(2-naphthalenyl)-(9CI)] (H-[dF]AY[dW]KVA[2Nal]-NH2) came in with a Ki of 29 nM.

The molecule `C[C@H](O)[C@H]1NC(=O)[C@H](CCCCN)NC(=O)[C@@H](Cc2c[nH]c3ccccc23)NC(=O)[C@@H](Cc2ccccc2)NC(=O)[C@@H](C)N(C)C(=O)[C@@H](Cc2ccccc2)N(C)C1=O` [N-Methylcyclo(D-Ala-D-Phe-D-Trp-L-Lys-D-Thr-N-methyl-D-Phe-)] (cyclo(K[dT][dNMeF][dNMeA][dF][dW])) returned a Ki of 405 nM.

As to `NCCCCC1NC(=O)C(Cc2c[nH]c3ccccc23)NC(=O)C(Cc2ccc(O)cc2)NC(=O)C(NC(=O)C(N)Cc2ccccc2)CSSCC(C(=O)NCc2cccc3ccccc23)NC(=O)C(CO)NC1=O` (stereo unspecified) [NC4-28B] (H-FCYWKSC-{NH(1-naphthylmethyl)}; disulfide 2-7; configuration not given here), the Ki is 1 nM.

As for `CC(O)[C@@H]1NC(=O)[C@@H](CCCCN)NC(=O)[C@H](Cc2c[nH]c3ccccc23)NC(=O)[C@@H](Cc2ccccc2)NC(=O)[C@H](Cc2ccccc2)NC(=O)[C@@H](CC(N)=O)NC(=O)[C@H](CCCCN)NC(=O)[C@@H](NC(=O)CNC(=O)[C@H](C)N)CSSC[C@H](C(=O)O)NC(=O)[C@@H](CO)NC(=O)[C@H]([C@@H](C)O)NC(=O)[C@@H](Cc2ccccc2)NC1=O` (stereo partly drawn) [SRIF-D-Trp8], the Ki stood at 0.002 nM.

For `NCCCC[C@@H]1NC(=O)[C@@H](Cc2c[nH]c3ccccc23)NC(=O)[C@H](Cc2ccccc2)NC(=O)CCCCCCNC(=O)[C@H](COCc2ccccc2)NC1=O` [c[Aha-Phe-D-Trp-Lys-Ser(Bzl)]] (cyclo([Ahp]F[dW]KS(Bn))), the affinity corresponds to a Ki of 188 nM.

The molecule `C[C@@H](Oc1ccccc1)[C@@H]1NC(=O)[C@H](CCCCN)NC(=O)[C@@H](Cc2c[nH]c3ccccc23)NC(=O)[C@H](Cc2ccccc2)NCCCCCCNC1=O` [c[Aha-Phe-D-Trp-Lys-Thr(Bzl)]] returned a Ki of 51 nM.

`C[C@@H](O)[C@@H]1NC(=O)[C@H](CCCCN)NC(=O)[C@@H](Cc2c[nH]c3ccccc23)NC(=O)[C@H](Cc2ccccc2)NC(=O)CCCCCCNC1=O` [c[Aha-Phe-D-Trp-Lys-Thr]] (cyclo([Ahp]F[dW]KT)) came in with a Ki of 1000 nM.

In turn, `C[C@@H](OCc1ccccc1)[C@@H]1NC(=O)[C@H](CCCCN)NC(=O)[C@@H](Cc2c[nH]c3ccccc23)NC(=O)[C@H](Cc2ccccc2)NC(=O)CCCCCNC1=O` [c[Ahx-Phe-D-Trp-Lys-Thr(Bzl)]] (cyclo([Ahx]F[dW]KT(Bn))) came in with a Ki of 34 nM.

Regarding `C[C@@H](OCc1ccccc1)[C@@H]1NC(=O)[C@H](CCCCN)NC(=O)[C@@H](Cc2c[nH]c3ccccc23)NC(=O)[C@H](Cc2ccccc2)NC(=O)CCCCCCCNC1=O` [c[Aoc-Phe-D-Trp-Lys-Thr(Bzl)]] (cyclo([Aoc]F[dW]KT(Bn))), the affinity, expressed as Ki, was 50 nM.

As for `CSCC[C@H](NC(=O)[C@H](C)NC(=O)[C@@H]1CCCN1C(=O)[C@H](CC(N)=O)NC(=O)[C@H](CO)NC(=O)[C@H](CC(N)=O)NC(=O)[C@H](C)NC(=O)[C@@H](N)CO)C(=O)N[C@@H](C)C(=O)N1CCC[C@H]1C(=O)N[C@@H](CCCNC(=N)N)C(=O)N[C@@H](CCC(=O)O)C(=O)N[C@@H](CCCNC(=N)N)C(=O)N[C@@H](CCCCN)C(=O)N[C@@H](C)C(=O)NCC(=O)N[C@H]1CSSC[C@@H](C(=O)O)NC(=O)[C@H](CO)NC(=O)[C@H]([C@@H](C)O)NC(=O)[C@H](Cc2ccccc2)NC(=O)[C@H]([C@@H](C)O)NC(=O)[C@H](CCCCN)NC(=O)[C@H](Cc2c[nH]c3ccccc23)NC(=O)[C@H](Cc2ccccc2)NC(=O)[C@H](Cc2ccccc2)NC(=O)[C@H](CC(N)=O)NC(=O)[C@H](CCCCN)NC1=O` [somatostatin-28], the Ki came out at 0.23 nM.

The values are drawn from BindingDB's records for PubMed 8102785 (University of Pennsylvania, 1993).
